Data as given in publication PMC11073428, “The activity of pyrazolo[4,3-e][1,2,4]triazine and pyrazolo[4,3-e]tetrazolo[1,5-b][1,2,4]triazine sulphonamide derivatives in monolayer and spheroid breast cancer cell cultures” (Journal of Enzyme Inhibition and Medicinal Chemistry, 2024).

Tested on: ROS in MCF-7 cells
Experiment: Total ROS activity, flow cytometry, MCF-7
Assay type: cell-based, human
Details: for cells that generated ROS: 24 h
Procedure: In brief, cells were washed two times with cold PBS solution and incubated in a solution of ROS Green dye in Assay Buffer and incubated for 1 h in optimal cell growth parameters, protected from light. After incubation, cells were washed with assay buffer. Subsequently, fluorescence emission intensities at 490 nm excitation and 520 nm emission were recorded in 500 μL assay buffer using flow cytometer BD FACSCanto II flow cytometer and FACSDiva software (BD Biosciences Systems, San Jose, CA).

## Cc1nn(-c2ccc(S(=O)(=O)N[C@@H](CO)Cc3ccccc3)cc2)c2nn3nnnc3nc12 [Compound 3b, (R)-N-(1-hydroxy-3-phenylpropan-2-yl)-4-(7-methyl-5H-pyrazolo[4,3-e]tetrazolo[1,5-b][1,2,4]triazin-6-yl)benzenesulfonamide]
MCF-7, 0.25 µM
  cells that generated ROS: 19.8 ± 2.2%
MCF-7, 0.5 µM
  increase of ROS level compared to control: 12 times
  cells that generated ROS: 27.5 ± 1.3%
